Values quoted from earlier work as cited in patent US20190350224A1, “METHOD FOR IMPROVING MUSCLE FORCE OR PHYSICAL FUNCTION” (University of Washington, priority 2018, published 2019).

Details: against reactive oxygen species

CC1=C(/C=C/C(C)=C/C=C/C(C)=C/C=C/C=C(C)/C=C/C=C(C)/C=C/C2=C(C)C(=O)C(O)CC2(C)C)C(C)(C)CC(O)C1=O (stereo not drawn) [astaxanthin, 3,3′-dihydroxy-β,β-carotene-4,4′-dione]
antioxidant action relative to n-carotene: about 40 times
